From PubChem BioAssay (NCI) come the findings set out here.

Test systems include SF-539 CNS; HL-60(TB) leukemia; HCC-2998 colon; OVCAR-4 ovarian; SK-OV-3 ovarian; SK-MEL-2 melanoma; K-562 leukemia; OVCAR-5 ovarian; A498 renal; HOP-92 NSCLC.
Experiment in all cases: NCI-60 cell line screen, 48 h

Structures are written as SMILES. Several values for one entry are separate records, joined by “and”; a condition that tells them apart may be missing. Equal values may be shown once.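 All cell lines were grown in 96-well plates and treated with compound for 48 hours. The concentration for 50% growth inhibition is given as GI50. TGI marks complete inhibition of growth.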 Where a SMILES comes first, the peptide text is derived from it. [ ]: non-standard residue; d: D form. The star is where a group is joined. ξ: configuration not given here. dIva = CC[C@@](C)(N)C(=O)O; Aib = CC(C)(N)C(=O)O; ξP = O=C(O)C1CCCN1; βAla = NCCC(=O)O; X5 = OCN*

On to `NC(C(=O)O)c1ccc(C(=O)O)cc1` (configuration not stated), for which the TGI in the test on SF-539 CNS, in the test on HL-60(TB) leukemia, with HCC-2998 colon, with OVCAR-4 ovarian, in the test with SK-OV-3 ovarian and in the test on SK-MEL-2 melanoma was > 100 µM each time. Further, the TGI with K-562 leukemia and in the test on OVCAR-5 ovarian was > 100 µM each time.
Turning to `CC[C@@](C)(NC(=O)[C@H](C)NC(=O)CCNC(=O)C(C)(C)NC(=O)[C@H](C)NC(=O)[C@@H]1CCCN1C(=O)[C@@](C)(CC)NC(=O)[C@H](Cc1ccccc1)NC(=O)C1CCCN1C(=O)C(C)(C)NC(=O)C1CCCN1C(=O)C(C)(C)NC(C)=O)C(=O)NCCC(=O)N[C@@H](CC(C)C)C(=O)NC(C)(C)C(=O)NCCC(=O)N[C@@H](CC(C)C)C(=O)NC(C)(C)C(=O)NC(C)(C)C(=O)N[C@@H](CC(C)C)C(=O)NCCC(=O)NCO` (some centres not stated) (Ac-[Aib][ξP][Aib][ξP]F[dIva]PA[Aib][βAla]A[dIva][βAla]L[Aib][βAla]L[Aib][Aib]L[βAla]-X5), the GI50 is 0.131 µM in the test on SF-539 CNS; 0.318 µM in the test on HL-60(TB) leukemia; 0.145 µM with HCC-2998 colon; 0.132 µM with OVCAR-4 ovarian; 0.0725 µM in the test on SK-OV-3 ovarian; 0.19 µM with A498 renal. Also, the GI50 is 0.202 µM in the test with SK-MEL-2 melanoma, 0.0791 µM with K-562 leukemia and 0.197 µM with OVCAR-5 ovarian. Besides, the TGI in the test on SF-539 CNS amounted to 0.354 µM; in the test on HL-60(TB) leukemia it was 0.65 µM; in the test with HCC-2998 colon it was 0.351 µM; with OVCAR-4 ovarian, 0.346 µM; in the test on SK-OV-3 ovarian, 0.266 µM; in the test with A498 renal, 0.412 µM. In addition, the TGI was determined as 0.427 µM in the test on SK-MEL-2 melanoma, 0.332 µM in the test on K-562 leukemia and 0.422 µM in the test with OVCAR-5 ovarian.
Regarding `Cc1ccc(SSCCCCS(=O)O)cc1`, the TGI in the test on SF-539 CNS was 38.1 µM; in the test on HL-60(TB) leukemia it was 20.4 µM; in the test with HCC-2998 colon, 66.3 µM; in the test with OVCAR-4 ovarian, 32 µM; in the test with SK-OV-3 ovarian, 71 µM; in the test with A498 renal it was 54.6 µM. Besides, the TGI was 68.5 µM in the test on SK-MEL-2 melanoma, > 100 µM in the test with K-562 leukemia and 96.3 µM with OVCAR-5 ovarian.
With `CC1(C)N=C(N)N=C(N)N1c1ccc(CCC(=O)Nc2cccc(S(=O)(=O)F)c2)cc1`, the GI50 with SF-539 CNS is 5.65 µM; with HL-60(TB) leukemia, 2.86 µM; with OVCAR-4 ovarian, > 100 µM; in the test with SK-OV-3 ovarian, > 100 µM; in the test with A498 renal it was 20.1 µM; in the test on SK-MEL-2 melanoma, 10.8 µM. For the same compound, the results for the GI50 in the test with K-562 leukemia, with OVCAR-5 ovarian and in the test on HOP-92 NSCLC were 1.35 µM, > 100 µM and > 100 µM, respectively. Also, the TGI in the test with SF-539 CNS, in the test on HL-60(TB) leukemia, with OVCAR-4 ovarian, in the test with SK-OV-3 ovarian, in the test on A498 renal and in the test on SK-MEL-2 melanoma was > 100 µM each time. Also, the TGI with K-562 leukemia, in the test on OVCAR-5 ovarian and in the test with HOP-92 NSCLC was > 100 µM each time.
With `CCN(CC)c1ccc(N=C2C=CC(=C(C#N)C#N)c3ccccc32)c(C)c1`, the TGI in the test with HL-60(TB) leukemia was found to be 3.61 µM; with OVCAR-4 ovarian, 5.63 µM; in the test with SK-OV-3 ovarian, 24 µM; in the test with SK-MEL-2 melanoma, 5.48 µM; in the test with K-562 leukemia, 5.47 µM; in the test with HOP-92 NSCLC it was 2.19 µM.
Take `Nc1nc(Cl)c2ncn(Cc3ccc(-c4ccc(CCl)cc4)cc3)c2n1`: the GI50 is 10.9 µM in the test on SF-539 CNS; 19.4 µM with HL-60(TB) leukemia; 8.12 µM with OVCAR-4 ovarian; 37.1 µM in the test on SK-OV-3 ovarian; 35.2 µM with A498 renal; 33.9 µM in the test on SK-MEL-2 melanoma. The GI50 in the test on K-562 leukemia was 13.9 µM; with OVCAR-5 ovarian, 20.8 µM; with HOP-92 NSCLC, 1.3 µM. Also, the TGI in the test with SF-539 CNS was 26.6 µM; in the test on HL-60(TB) leukemia it was > 100 µM; in the test with OVCAR-4 ovarian it was 43.6 µM; in the test on SK-OV-3 ovarian it was > 100 µM; in the test on A498 renal it was > 100 µM; in the test on SK-MEL-2 melanoma, > 100 µM. Also, the TGI is > 100 µM in the test on K-562 leukemia, > 100 µM in the test with OVCAR-5 ovarian and 23.6 µM in the test on HOP-92 NSCLC.
On to `N#CC1([N+](=O)[O-])C=C1c1ccccc1` (configuration not stated), for which the TGI was > 100 µM in the test with SF-539 CNS; 46.3 µM in the test with HL-60(TB) leukemia; > 100 µM in the test on OVCAR-4 ovarian; > 100 µM with SK-OV-3 ovarian; > 100 µM in the test on SK-MEL-2 melanoma; 71.5 µM with K-562 leukemia. Also, the TGI in the test with OVCAR-5 ovarian is > 100 µM.
In the case of `N#CC1C(=O)NC(=O)C(C#N)C1c1ccc(Cl)c(Cl)c1` (configuration not stated), the TGI is 42.6 µM in the test with SF-539 CNS; > 100 µM in the test with HL-60(TB) leukemia; > 100 µM with OVCAR-4 ovarian; > 100 µM with SK-OV-3 ovarian; > 100 µM with SK-MEL-2 melanoma; 85.8 µM in the test with K-562 leukemia. The TGI in the test with OVCAR-5 ovarian is 68.6 µM; in the test on HOP-92 NSCLC, > 100 µM.
On to `O=C1CC2OCC=C3CN4CCC56c7ccccc7N1C5C2C3CC46` (configuration not stated) (tested in a mixture with another compound), for which the GI50 in the test on SF-539 CNS was > 50 µg/mL; with HL-60(TB) leukemia, 0.103 µg/mL; with OVCAR-4 ovarian it was > 50 µg/mL; in the test on SK-OV-3 ovarian it was > 50 µg/mL; in the test on A498 renal, > 50 µg/mL; in the test on SK-MEL-2 melanoma, > 50 µg/mL. Further, the GI50 was 3.44 µg/mL in the test with K-562 leukemia, > 50 µg/mL in the test on OVCAR-5 ovarian and > 50 µg/mL with HOP-92 NSCLC. Moreover, the TGI was > 50 µg/mL with SF-539 CNS; 0.216 µg/mL in the test with HL-60(TB) leukemia; > 50 µg/mL in the test on OVCAR-4 ovarian; > 50 µg/mL in the test with SK-OV-3 ovarian; > 50 µg/mL in the test on A498 renal; > 50 µg/mL with SK-MEL-2 melanoma. Further, the TGI in the test on K-562 leukemia, in the test with OVCAR-5 ovarian and in the test with HOP-92 NSCLC was > 50 µg/mL throughout.
`NC(=S)N=Nc1c(O)[nH]c2ccccc12`: the GI50 in the test on SF-539 CNS is 170 µM; in the test on HL-60(TB) leukemia, 275 µM; in the test on OVCAR-4 ovarian, 239 µM; in the test with SK-OV-3 ovarian, 209 µM; in the test with A498 renal, 30.1 µM and 206 µM; with SK-MEL-2 melanoma, 296 µM. The GI50 in the test with HOP-92 NSCLC is 64.8 µM and 106 µM. The TGI is 361 µM in the test on SF-539 CNS; > 1000 µM in the test with HL-60(TB) leukemia; > 1000 µM with OVCAR-4 ovarian; 431 µM in the test on SK-OV-3 ovarian; 94.9 µM and 503 µM in the test with A498 renal; > 1000 µM in the test with SK-MEL-2 melanoma. The TGI in the test with K-562 leukemia is > 1000 µM; in the test on HOP-92 NSCLC it was 224 µM.
Consider `COc1ccc(S(=O)(=O)N/N=C/CN2C(=O)c3ccccc3C2=O)cc1`, for which the TGI in the test with SF-539 CNS, in the test with HL-60(TB) leukemia, in the test on HCC-2998 colon, in the test with OVCAR-4 ovarian, with A498 renal and in the test on SK-MEL-2 melanoma was > 100 µM each time. Also, the TGI in the test on K-562 leukemia is > 100 µM.
